From US10125118B2, “Heteroaryl compounds and their use as therapeutic drugs” (Dong-A Socio Holdings Co., Ltd., priority 2015, dated 2018) come the findings set out here.

Like-named read-outs stand apart in the source and are kept apart here. Where only a bound is given, the exact number is not on record here.

The subject of experiment [1] is CD8-MerTK in Ba/F3-CDM cells. The experiment can be described thus: In cell MER kinase assay, Ba/F3-CDM cell proliferation without IL-3 (Celltiter-Glo). It is filed as cell-based, murine. Particulars: 48 hours compound treatment, read-out: Cell growth inhibition (GI50). A digest of the protocol: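 Ba/F3 cells, IL-3-dependent, transfected with CD8-MerTK and grown without IL-3 in DMEM/10% FBS. IL-3-supplemented Ba/F3 cells run in parallel as a cytotoxicity control.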
(In general: ATP-based viability assays read luminescence as a measure of living cells.)

The target in experiment [2] is human c-MER catalytic domain (Homo sapiens (Human), UniProt Q12866). The experiment can be described thus: LanthaScreen TR-FRET kinase assay, c-MER.
Sequence of human c-MER catalytic domain (Q12866 587-858): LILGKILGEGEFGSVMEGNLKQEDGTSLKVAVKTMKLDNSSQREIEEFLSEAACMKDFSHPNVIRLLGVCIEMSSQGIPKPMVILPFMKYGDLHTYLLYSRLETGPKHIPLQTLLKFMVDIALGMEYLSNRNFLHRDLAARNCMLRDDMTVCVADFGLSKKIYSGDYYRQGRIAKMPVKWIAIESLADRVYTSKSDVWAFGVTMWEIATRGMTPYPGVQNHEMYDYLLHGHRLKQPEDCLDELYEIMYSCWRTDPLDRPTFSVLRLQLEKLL
[3] abbreviates: read-out: Mer TK inhibition (IC50), Biochemical IC50, TR-FRET, 10 uM ATP.

For the molecule `Cn1cc(-c2cnc(N)c(C(=O)N[C@H]3CNC[C@@H]3OCc3ccc(-c4ccc(CN5CCN(CCO)CC5)cc4)cc3)c2)cn1` [Example 446, 2-amino-N-((3S,4S)-4-((4′-((4-(2-hydroxyethyl)piperazin-1-yl)-methyl)-[1,1′-biphenyl]-4-yl)methoxy)pyrrolidin-3-yl)-5-(1-methyl-1H-pyrazol-4-yl)-nicotinamide], in experiment [1], the concentration for 50% growth inhibition (GI50) is more than 1000 nM. In experiment [2] (setting [3]), the concentration for half-maximal inhibition (IC50) was less than 10 nM.
On to `CCc1cc(CO[C@H]2CNC[C@@H]2NC(=O)c2cc(-c3cnn(C4CCNCC4)c3)cnc2N)ccc1C` [Example 412, 2-amino-N-((3S,4S)-4-((3-ethyl-4-methylbenzyl)oxy)pyrrolidin-3-yl)-5-(1-(piperidin-4-yl)-1H-pyrazol-4-yl)nicotinamide], for which, in experiment [1], the concentration for 50% growth inhibition (GI50) was more than 1000 nM. Moreover, in experiment [2] (setting [3]), the IC50 is less than 10 nM.
Taken in the same sequence, the figures for `Cn1cc(-c2cnc(N)c(C(=O)N[C@H]3COC[C@@H]3OCc3ccc(-c4ccc(CN5CCN(CCO)CC5)cc4)cc3)c2)cn1` [Example 451, 2-amino-N-((3S,4R)-4-((4′-((4-(2-hydroxyethyl)piperazin-1-yl)methyl)-[1,1′-biphenyl]-4-yl)methoxy)tetrahydrofuran-3-yl)-5-(1-methyl-1H-pyrazol-4-yl)nicotinamide] were less than 100 nM and less than 10 nM.
For `Cc1cccc(C)c1CO[C@H]1CCC[C@@H]1NC(=O)c1cc(-c2cnn(C)c2)cnc1N` [Example 15, 2-amino-N-((1S,2S)-2-((2,6-dimethylbenzyl)oxy)cyclopentyl)-5-(1-methyl-1H-pyrazol-4-yl)nicotinamide], the 50% growth inhibitory concentration (GI50) in experiment [1] was more than 1000 nM. Besides, the IC50 in experiment [2] (setting [3]) was more than 1000 nM.
As for `CN1CCC(Cc2ccc(-c3ccc(CO[C@H]4CCC[C@@H]4NC(=O)c4cc(-c5cnn(C)c5)cnc4N)cc3)cc2)CC1` [Example 239, 2-amino-5-(1-methyl-1H-pyrazol-4-yl)-N-((1S,2S)-2-((4′-((1-methylpiperidin-4-yl)methyl)-[1,1′-biphenyl]-4-yl)methoxy)cyclopentyl)nicotinamide], the GI50 in experiment [1] is less than 100 nM. Besides, the IC50 in experiment [2] (setting [3]) is less than 10 nM.
On the same counts, the results for `CN1CCN(C2(c3ccc(-c4ccc(CO[C@H]5CCC[C@@H]5NC(=O)c5cc(-c6ccc(F)nc6)cnc5N)cc4)cc3)CC2)CC1` [Example 224, 6-amino-6′-fluoro-N-((1S,2S)-2-((4′-(1-(4-methylpiperazin-1-yl)cyclopropyl)-[1,1′-biphenyl]-4-yl)methoxy)cyclopentyl)-[3,3′-bipyridine]-5-carboxamide] are 100 to 500 nM and less than 10 nM.
Consider `CCc1cc(CO[C@H]2CNC[C@@H]2NC(=O)c2cc(-c3ccc(CN4CCN(C)CC4)cc3)cnc2N)ccc1C` [Example 390, 2-amino-N-((3S,4S)-4-((3-ethyl-4-methylbenzyl)oxy)pyrrolidin-3-yl)-5-(4-((4-methylpiperazin-1-yl)methyl)phenyl)nicotinamide], for which, in experiment [1], the concentration for 50% growth inhibition (GI50) lay in the range of 100 to 500 nM. Besides, the concentration for half-maximal inhibition (IC50) in experiment [2] (setting [3]) was less than 10 nM.
In the case of `CC(c1ccc(-c2ccc(CO[C@H]3CCC[C@@H]3NC(=O)c3cc(-c4cnn(C)c4)cnc3N)cc2)cc1)N1CCN(C)CC1` (stereo partly drawn) [Example 208, 2-amino-5-(1-methyl-1H-pyrazol-4-yl)-N-((1S,2S)-2-((4′-(1-(4-methylpiperazin-1-yl)ethyl)-[1,1′-biphenyl]-4-yl)methoxy)cyclopentyl)nicotinamide], the concentration for 50% growth inhibition (GI50) in experiment [1] is less than 100 nM. Further, the IC50 in experiment [2] (setting [3]) was less than 10 nM.
`CN1CCN(Cc2ccc(-c3ccc(CO[C@H]4CN(C)C[C@@H]4NC(=O)c4cc(-c5cnn(C)c5)cnc4N)cc3)cc2)CC1` [Example 435, 2-amino-5-(1-methyl-1H-pyrazol-4-yl)-N-((3S,4S)-1-methyl-4-((4′-((4-methylpiperazin-1-yl)methyl)-[1,1′-biphenyl]-4-yl)methoxy)pyrrolidin-3-yl)-nicotinamide]: the GI50 in experiment [1] lay within 100 to 500 nM. Further, the IC50 in experiment [2] (setting [3]) was less than 10 nM.
With `CCc1cc(CO[C@H]2CNC[C@@H]2NC(=O)c2cc(-c3ccc(C=O)cc3)cnc2N)ccc1C` [Example 399, 2-amino-N-((3S,4S)-4-((3-ethyl-4-methylbenzyl)oxy)pyrrolidin-3-yl)-5-(4-formylphenyl)nicotinamide], the 50% growth inhibitory concentration (GI50) in experiment [1] lay within 500 to 1000 nM. The molecule also returned a concentration for half-maximal inhibition (IC50) in experiment [2] of less than 10 nM.
Turning to `CCc1cc(CO[C@H]2CNC[C@@H]2NC(=O)c2cc(-c3cccnc3)cnc2N)ccc1C` [Example 396, 6-amino-N-((3S,4S)-4-((3-ethyl-4-methylbenzyl)oxy)pyrrolidin-3-yl)-[3,3′-bipyridine]-5-carboxamide], the GI50 in experiment [1] is more than 1000 nM. The IC50 in experiment [2] (setting [3]) was less than 10 nM.
`CN1CCN(Cc2ccc(-c3ccc(CO[C@H]4CCC[C@@H]4NC(=O)c4cc(-c5cnn(C)c5)cnc4N)cc3)cc2[N+](=O)[O-])CC1` [Example 200, 2-amino-5-(1-methyl-1H-pyrazol-4-yl)-N-((1S,2S)-2-((4′-((4-methylpiperazin-1-yl)methyl)-3′-nitro-[1,1′-biphenyl]-4-yl)methoxy)-cyclopentyl)nicotinamide]: the GI50 in experiment [1] was 100 to 500 nM. Also, in experiment [2] (setting [3]), the IC50 is less than 10 nM.
On to `Cn1cc(-c2cnc(N)c(C(=O)N[C@H]3CNC[C@@H]3OCc3ccc(-c4ccc(CN5CCN(CCO)CC5)c(C(F)(F)F)c4)cc3)c2)cn1` [Example 444, 2-amino-N-((3S,4S)-4-((4′-((4-(2-hydroxyethyl)piperazin-1-yl)-methyl)-3′-(trifluoromethyl)-[1,1′-biphenyl]-4-yl)methoxy)pyrrolidin-3-yl)-5-(1-methyl-1H-pyrazol-4-yl)nicotinamide], for which the GI50 in experiment [1] is more than 1000 nM. In addition, the half-inhibitory concentration (IC50) in experiment [2] (setting [3]) was less than 10 nM.
Taken in the same sequence, the figures for `CN1C[C@H](NC(=O)c2cc(-c3cnn(C)c3)cnc2N)[C@@H](OCc2ccc(-c3ccc(CN4CCN(CCO)CC4)c(C(F)(F)F)c3)cc2)C1` [Example 445, 2-amino-N-((3S,4S)-4-((4′-((4-(2-hydroxyethyl)piperazin-1-yl)-methyl)-3′-(trifluoromethyl)-[1,1′-biphenyl]-4-yl)methoxy)-1-methylpyrrolidin-3-yl)-5-(1-methyl-1H-pyrazol-4-yl)nicotinamide] were less than 100 nM and less than 10 nM.
`CCc1cc(CO[C@H]2CCC[C@@H]2NC(=O)c2cc(-c3ccc(C(C)(C)N4CCN(CCO)CC4)cc3)cnc2N)ccc1C` [Example 360, 2-amino-N-((1S,2S)-2-((3-ethyl-4-methylbenzyl)oxy)cyclopentyl)-5-(4-(2-(4-(2-hydroxyethyl)piperazin-1-yl)propan-2-yl)phenyl)nicotinamide]: the GI50 in experiment [1] is more than 1000 nM. Besides, in experiment [2] (setting [3]), the IC50 was less than 10 nM.
`CCc1cc(CO[C@H]2CNC[C@@H]2NC(=O)c2cc(-c3ccc(N(C)C)cc3)cnc2N)ccc1C` [Example 405, 2-amino-5-(4-(dimethylamino)phenyl)-N-((3S,4S)-4-((3-ethyl-4-methylbenzyl)oxy)pyrrolidin-3-yl)nicotinamide]: the GI50 in experiment [1] was in the range of 100 to 500 nM. Besides, the IC50 in experiment [2] (setting [3]) is less than 10 nM.
Turning to `CN1CCN(Cc2ccc(-c3ccc(CO[C@H]4CCC[C@@H]4NC(=O)c4cc(-c5ccccc5)cnc4N)cc3)cc2)CC1` [Example 371, 2-amino-N-((1S,2S)-2-((4′-((4-methylpiperazin-1-yl)methyl)-[1,1′-biphenyl]-4-yl)methoxy)cyclopentyl)-5-phenylnicotinamide], the 50% growth inhibitory concentration (GI50) in experiment [1] was less than 100 nM. The IC50 in experiment [2] (setting [3]) was less than 10 nM.
On the same counts, the results for `CC(c1ccc(-c2ccc(CO[C@H]3CCC[C@@H]3NC(=O)c3cccnc3N)cc2)cc1)N1CCN(C)CC1` (stereo partly drawn) [Example 235, 2-amino-N-((1S,2S)-2-((4′-(1-(4-methylpiperazin-1-yl)ethyl)-[1,1′-biphenyl]-4-yl)methoxy)cyclopentyl)nicotinamide] are 500 to 1000 nM and less than 10 nM.
On the same counts, the results for `C[C@H](c1ccc(-c2ccc(CO[C@H]3CCC[C@@H]3NC(=O)c3cc(-c4cnn(C)c4)cnc3N)cc2)cc1)N1CCN(C)CC1` [Example 214, 2-amino-5-(1-methyl-1H-pyrazol-4-yl)-N-((1S,2S)-2-((4′-((R)-1-(4-methylpiperazin-1-yl)ethyl)-[1,1′-biphenyl]-4-yl)methoxy)cyclopentyl)nicotinamide] are less than 100 nM and less than 10 nM.
As for `CN1CCC(n2cc(-c3cnc(N)c(C(=O)N[C@H]4CCC[C@@H]4OCc4ccc(-c5ccc(CN6CCN(C)CC6)cc5)cc4)c3)cn2)CC1` [Example 366, 2-amino-N-((1S,2S)-2-((4′-((4-methylpiperazin-1-yl)methyl)-[1,1′-biphenyl]-4-yl)methoxy)cyclopentyl)-5-(1-(1-methylpiperidin-4-yl)-1H-pyrazol-4-yl)nicotinamide], in experiment [1], the GI50 was less than 100 nM. In experiment [2] (setting [3]), the half-inhibitory concentration (IC50) was less than 10 nM.
Consider `COC(=O)CN1CCC(Cc2ccc(-c3ccc(CO[C@H]4CCC[C@@H]4NC(=O)c4cc(-c5cnn(C)c5)cnc4N)cc3)cc2)CC1` [Example 241, Methyl 2-(4-((4′-((((1S,2S)-2-(2-amino-5-(1-methyl-1H-pyrazol-4-yl)nicotinamido)cyclopentyl)oxy)methyl)-[1,1′-biphenyl]-4-yl)methyl)piperidin-1-yl)-acetate], for which the GI50 in experiment [1] is 500 to 1000 nM. Further, the concentration for half-maximal inhibition (IC50) in experiment [2] (setting [3]) is less than 10 nM.
With `CN1CCN(c2ccc(-c3ccc(CO[C@H]4CCC[C@@H]4NC(=O)c4cc(-c5cnn(C)c5)cnc4N)cc3)cc2)CC1` [Example 146, 2-amino-5-(1-methyl-1H-pyrazol-4-yl)-N-((1S,2S)-2-((4′-(4-methylpiperazin-1-yl)-[1,1′-biphenyl]-4-yl)methoxy)cyclopentyl)nicotinamide], in experiment [1], the GI50 is less than 100 nM. The IC50 in experiment [2] (setting [3]) is less than 10 nM.
Turning to `CC(c1ccc(-c2ccc(CO[C@H]3CNC[C@@H]3NC(=O)c3cc(-c4cnn(C)c4)cnc3N)cc2)cc1)N1CCN(CCO)CC1` (stereo partly drawn) [Example 442, 2-amino-N-((3S,4S)-4-((4′-(1-(4-(2-hydroxyethyl)piperazin-1-yl)ethyl)-[1,1′-biphenyl]-4-yl)methoxy)pyrrolidin-3-yl)-5-(1-methyl-1H-pyrazol-4-yl)nicotinamide], the GI50 in experiment [1] was more than 1000 nM. In addition, in experiment [2] (setting [3]), the IC50 was less than 10 nM.

For orientation: GI50 means the concentration that inhibits growth by half. One may read the IC50 as the concentration needed to halve the response being measured.
